Experimental data: patent US20060069132A1, “Azolecarboxamide herbicides” (priority 2004, published 2006)

Key:
[1] = system: smallflower umbrella sedge; test: Test C flooded paddy test; assay type: in vivo, Cyperus difformis; conditions: for Plant response rating, Sedge, Umbrella: 500 g ai/ha, visual rating after 12 to 14 days
ducksalad [2] = test: Test C flooded paddy test; assay type: in vivo, Heteranthera limosa; conditions: for Plant response rating, Ducksalad: 500 g ai/ha, visual rating after 12 to 14 days
cocklebur = test: Test C pre-/postemergence herbicide test; assay type: in vivo, Xanthium strumarium
Procedure, shortened: (§1)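 Greenhouse-grown plants were evaluated visually 12 to 14 days after treatment, with 100 meaning complete control and 0 no effect. Application was preemergence, or postemergence at 2 to 18 cm.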

ducksalad [3] = test: Test B flooded paddy test; assay type: in vivo, Heteranthera limosa; conditions: 1000 g ai/ha, scale 0 to 100 (0 no effect, 100 complete control)
Procedure, shortened: (§2)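 Visual control ratings, 0–100 versus untreated controls, taken after 13 to 15 days in the greenhouse. Blackgrass received a postemergence spray at the 1- to 4-leaf stage (2–18 cm); ducksalad, umbrella sedge and barnyardgrass were flooded-paddy treated at 2 leaves.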

eastern black nightshade = test: Test C pre-/postemergence herbicide test; assay type: in vivo, Solanum ptycanthum; conditions: preemergence
Text: Seeds of plant species selected from bermudagrass (Cynodon dactylon (L.) Pers.), Surinam grass (Urochloa decumbens (Staph) R. D. Webster, previously named Brachiaria decumbens Stapf), cocklebur (Xanthium strumarium L.), corn (Zea mays L.), large crabgrass (Digitaria sanguinalis (L.) Scop.), woolly cupgrass (Eriochloa villosa (Thunb.) Kunth), giant foxtail (Setaria faberi Herrm.), goosegrass (Eleusine indica (L.) Gaertn.), johnsongrass (Sorghum halepense (L.) Pers.), kochia (Kochia scoparia (L.) Schrad.), lambsquarters (Chenopodium album L.), morningglory (Ipomoea coccinea L.), eastern black nightshade (Solanum ptycanthum Dunal), yellow nutsedge (Cyperus esculentus L.), pigweed (Amaranthus retroflexus L.), common ragweed (Ambrosia elatior L.), soybean (Glycine max (L.) Merr.), common (oilseed) sunflower (Helianthus annuus L.) and velvetleaf (Abutilon theophrasti Medik.) were planted and treated preemergence with test chemicals formulated in a non-phytotoxic solvent mixture which included a surfactant.
At the same time, plants selected from these crop and weed species and also winter barley (Hordeum vulgare L.), blackgrass (Alopecurus myosuroides Huds.), canarygrass (Phalaris minor Retz.), chickweed (Stellaria media (L.) Vill.), downy bromegrass (Bromus tectorum L.), green foxtail (Setaria viridis (L.) Beauv.), Italian ryegrass (Lolium multiflorum Lam.), wheat (Triticum aestivum L.), wild oat (Avenafatua L.) and windgrass (Apera spica-venti (L.) Beauv.) were treated with postemergence applications of some of the test chemicals formulated in the same manner. Plants ranged in height from 2 to 18 cm (1- to 4-leaf stage) for postemergence treatments. Plant species in the flooded paddy test consisted of rice (Oryza sativa), smallflower umbrella sedge (Cyperus difformis L.), ducksalad (Heteranthera limosa (Sw.) Willd.) and barnyardgrass (Echinochloa crus-galli (L.) Beauv.) grown to the 2-leaf stage for testing. Treated plants and controls were maintained in a greenhouse for 12 to 14 days, after which time all species were compared to controls and visually evaluated. Plant response ratings, summarized in Table C, are based on a scale of 0 to 100 where 0 is no effect and 100 is complete control. A dash (-) response means no test result.

corn = test: Test C pre-/postemergence herbicide test; assay type: in vivo, Zea mays; conditions: preemergence
Procedure, shortened: as §1

barnyardgrass = test: Test B flooded paddy test; assay type: in vivo, Echinochloa crus-galli; conditions: 1000 g ai/ha, scale 0 to 100 (0 no effect, 100 complete control)
Procedure, shortened: as §2

velvetleaf = test: Test C pre-/postemergence herbicide test; assay type: in vivo, Abutilon theophrasti; conditions: preemergence
Procedure, shortened: as §1

goosegrass = test: Test C pre-/postemergence herbicide test; assay type: in vivo, Eleusine indica; conditions: preemergence
Procedure, shortened: as §1

johnsongrass = test: Test C pre-/postemergence herbicide test; assay type: in vivo, Sorghum halepense; conditions: preemergence
Procedure, shortened: as §1

rice = test: Test B flooded paddy test; assay type: in vivo, Oryza sativa; conditions: 1000 g ai/ha, scale 0 to 100 (0 no effect, 100 complete control)
Procedure, shortened: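 Scale 0–100: zero equals no visible effect, 100 complete control, judged by eye relative to controls. Timing: 13 to 15 days in greenhouse post-treatment. Growth stage at spraying: two leaves (paddy) or one to four leaves, 2–18 cm (postemergence).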

[4] = 62 g ai/ha, scale 0 to 100 (0 no effect, 100 complete control)
[5] = 125 g ai/ha, scale of 0 to 100, 0 is no effect, 100 is complete control
[6] = 250 g ai/ha, scale of 0 to 100, 0 is no effect, 100 is complete control
[7] = scale 0 to 100 (0 no effect, 100 complete control)
[8] = 125 g ai/ha, scale 0 (no effect) to 100 (complete control), visual, 12 to 14 days, preemergence
[9] = 125 g ai/ha, scale 0 (no effect) to 100 (complete control), visual, 12 to 14 days
[10] = 125 g ai/ha, scale 0 to 100 (0 no effect, 100 complete control)
[11] = 500 g ai/ha, scale 0 to 100 (0 no effect, 100 complete control), visual, 12 to 14 days

With `CCOC(=O)c1cc(NC(=O)c2cc(C(C)(C)C)nn2CC)ccc1OCC` [Compound 95] the “Sedge, Umbrella plant response rating” value [1, 4] was 85, the “Sedge, Umbrella plant response rating” value [1, 5] was 90 and the “Sedge, Umbrella plant response rating” value [1, 6] was 95. The “Plant response rating, Sedge, Umbrella” value [1, 7] was 95, the “Ducksalad plant response rating” value (ducksalad [2]; [4]) was 10 and the “Ducksalad plant response rating” value (ducksalad [2]; [5]) was 25. The “Ducksalad plant response rating” value (ducksalad [2]; [6]) was 75, the “Plant response rating, Ducksalad” value (ducksalad [2]; [7]) was 90 and the “Plant response rating, Cocklebur” value (cocklebur; 31 g ai/ha, preemergence, scale 0 to 100) was 0. The “Plant response rating (0 = no effect, 100 = complete control), Cocklebur” value (cocklebur; 62 g ai/ha, preemergence) was 0, the “Plant response rating, Cocklebur” value (cocklebur; [8]) was 5 and the “Plant response rating, Cocklebur” value (cocklebur; 250 g ai/ha, scale 0 to 100 (0 no effect, 100 complete control), visual, 12 to 14 days, preemergence) was 10. For the same compound, the “Ducksalad plant response rating” value (ducksalad [3]; visual rating, 13 to 15 days) was 80, the “Plant response rating, Nightshade” value (eastern black nightshade; 31 g ai/ha, scale 0 to 100) was 90 and the “Plant response rating (0 = no effect, 100 = complete control), Nightshade” value (eastern black nightshade; 62 g ai/ha) was 95. The “Plant response rating, Nightshade” value (eastern black nightshade; [9]) was 95, the “Plant response rating, Corn” value (corn; 31 g ai/ha, scale 0 to 100) was 0 and the “Plant response rating (0 = no effect, 100 = complete control), Corn” value (corn; 62 g ai/ha) was 0. The “Plant response rating, Corn” value (corn; [9]) was 10, the “Plant response rating, Corn” value (corn; 250 g ai/ha, scale 0 to 100 (0 no effect, 100 complete control), visual, 12 to 14 days) was 20 and the “Barnyardgrass plant response rating” value (barnyardgrass; visual rating, 13 to 15 days) was 50. The “Plant response rating, Velvetleaf” value (velvetleaf; 31 g ai/ha, scale 0 to 100) was 0, the “Plant response rating, Velvetleaf” value (velvetleaf; [9]) was 60 and the “Plant response rating, Goosegrass” value (goosegrass; 31 g ai/ha, scale 0 to 100) was 0. For the same compound, the “Plant response rating (0 = no effect, 100 = complete control), Goosegrass” value (goosegrass; 62 g ai/ha) was 0, the “Plant response rating, Goosegrass” value (goosegrass; [9]) was 50 and the “Plant response rating, Johnsongrass” value (johnsongrass; 31 g ai/ha, scale 0 to 100) was 0. For the same compound, the “Plant response rating (0 = no effect, 100 = complete control), Johnsongrass” value (johnsongrass; 62 g ai/ha) was 0, the “Plant response rating, Johnsongrass” value (johnsongrass; [9]) was 40 and the “Rice plant response rating” value (rice; visual rating, 13 to 15 days) was 60.
With `CCn1nc(C(C)(C)C)cc1C(=O)Nc1cc(C(=O)N(C)OC)ccc1F` [Compound 244] the “Sedge, Umbrella plant response rating” value [1, 4] was 20, the “Sedge, Umbrella plant response rating” value [1, 10] was 65 and the “Sedge, Umbrella plant response rating” value [1, 6] was 70. The “Plant response rating, Sedge, Umbrella” value [1, 7] was 85, the “Ducksalad plant response rating” value (ducksalad [2]; [4]) was 25 and the “Ducksalad plant response rating” value (ducksalad [2]; [10]) was 85. For the same compound, the “Ducksalad plant response rating” value (ducksalad [2]; [6]) was 85, the “Plant response rating, Ducksalad” value (ducksalad [2]; [7]) was 95 and the “Plant response rating, Cocklebur” value (cocklebur; 62 g ai/ha, preemergence, scale 0 to 100) was 0. The “Plant response rating, Cocklebur” value (cocklebur; [8]) was 0, the “Plant response rating, Cocklebur” value (cocklebur; 250 g ai/ha, scale 0-100, preemergence) was 0 and the “Cocklebur plant response rating” value (cocklebur; Preemergence, 500 g ai/ha, scale 0 to 100, 0 no effect, 100 complete control) was 0. The “Ducksalad plant response rating” value (ducksalad [3]) was 90, the “Plant response rating, Nightshade” value (eastern black nightshade; 62 g ai/ha, scale 0 to 100) was 100 and the “Plant response rating, Nightshade” value (eastern black nightshade; [9]) was 100. For the same compound, the “Plant response rating, Nightshade” value (eastern black nightshade; 250 g ai/ha, scale 0-100) was 100, the “Plant response rating, Nightshade” value (eastern black nightshade; [11]) was 100 and the “Plant response rating, Corn” value (corn; 62 g ai/ha, scale 0 to 100) was 0. For the same compound, the “Plant response rating, Corn” value (corn; [9]) was 10, the “Plant response rating, Corn” value (corn; 250 g ai/ha, scale 0-100) was 10 and the “Plant response rating, Corn” value (corn; [11]) was 45. The “Barnyardgrass plant response rating” value (barnyardgrass) was 90, the “Plant response rating, Velvetleaf” value (velvetleaf; 62 g ai/ha, scale 0 to 100) was 15 and the “Plant response rating, Velvetleaf” value (velvetleaf; 250 g ai/ha, scale 0-100) was 100. For the same compound, the “Plant response rating, Velvetleaf” value (velvetleaf; [11]) was 100, the “Plant response rating, Goosegrass” value (goosegrass; 62 g ai/ha, scale 0 to 100) was 70 and the “Plant response rating, Goosegrass” value (goosegrass; [9]) was 95. The “Plant response rating, Goosegrass” value (goosegrass; 250 g ai/ha, scale 0-100) was 100, the “Plant response rating, Goosegrass” value (goosegrass; [11]) was 100 and the “Plant response rating, Johnsongrass” value (johnsongrass; 62 g ai/ha, scale 0 to 100) was 60. The “Plant response rating, Johnsongrass” value (johnsongrass; [9]) was 95, the “Plant response rating, Johnsongrass” value (johnsongrass; 250 g ai/ha, scale 0-100) was 95 and the “Plant response rating, Johnsongrass” value (johnsongrass; [11]) was 100. For the same compound, the “Rice plant response rating” value (rice) was 90.
